Reference: US20150105252A1, “SUBSTITUTED PYRAZOLES AS HERBICIDES” (E I DU PONT DE NEMOURS AND COMPANY, priority 2013, published 2015)

Assays:
blackgrass = experiment: Test C postemergence; assay type: in vivo, Alopecurus myosuroides; settings: for Blackgrass plant response rating: scale 0 to 100
Description: (§1) Seeds of plant species selected from blackgrass (Alopecurus myosuroides), ryegrass, Italian (Italian ryegrass, Lolium multiflorum), wheat (winter wheat, Triticum aestivum), galium (catchweed bedstraw, Galium aparine), corn (Zea mays), crabgrass, large (large crabgrass, Digitaria sanguinalis), foxtail, giant (giant foxtail, Setaria faberii), johnsongrass (Sorghum halepense), lambsquarters (Chenopodium album), morningglory (Ipomoea coccinea), nutsedge, yellow (yellow nutsedge, Cyperus esculentus), pigweed (redroot pigweed, Amaranthus retroflexus), ragweed (common ragweed, Ambrosia elation), soybean (Glycine max), barnyardgrass (Echinochloa crus-galli), oilseed rape (Brassica napus), waterhemp (common waterhemp, Amaranthus rudis), oat, wild (wild oat, Avena fatua), kochia (Kochia scoparia), Surinam grass (Brachiaria decumbens), foxtail, green (green foxtail, Setaria viridis), goosegrass (Eleusine indica), bromegrass, downy (downy bromegrass, Bromus tectorum), nightshade (eastern black nightshade, Solanum ptycanthum), cocklebur (common cocklebur, Xanthium strumarium), cupgrass, woolly (woolly cupgrass, Eriochloa villosa), bermudagrass (Cynodon dactylon), sunflower, (common oilseed sunflower, Helianthus annuus), Russian thistle (Salsola kali), and velvetleaf (Abutilon theophrasti) were planted into a blend of loam soil and sand and treated preemergence with test chemicals formulated in a non-phytotoxic solvent mixture which included a surfactant.
(§2) At the same time, plants selected from these crop and weed species and also chickweed (common chickweed, Stellaria media), canarygrass (littleseed canarygrass, Phalaris minor), and deadnettle (henbit deadnettle, Lamium amplexicaule), were planted in pots containing Redi-Earth® planting medium (Scotts Company, 14111 Scottslawn Road, Marysville, Ohio 43041) comprising spaghnum peat moss, vermiculite, wetting agent and starter nutrients and treated with postemergence applications of test chemicals formulated in the same manner. Plants ranged in height from 2 to 18 cm (1- to 4-leaf stage) for postemergence treatments. Treated plants and controls were maintained in a greenhouse for 13 to 15 days, after which time all species were compared to controls and visually evaluated. Plant response ratings, summarized in Table C, are based on a scale of 0 to 100 where 0 is no effect and 100 is complete control. A dash (-) response means no test result.

crabgrass, large = experiment: Test C postemergence; assay type: in vivo, Digitaria sanguinalis; settings: for Crabgrass, Large plant response rating: scale 0 to 100
Procedure, shortened: (§3)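 Visual control ratings on a 0–100 scale (100 = complete control) made against untreated controls after 13 to 15 days in greenhouse. Compounds applied in surfactant-containing solvent mixture, either preemergence to loam/sand-sown seeds or postemergence to 1- to 4-leaf plants (2–18 cm) in peat medium.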

johnsongrass [1] = experiment: Test C postemergence; assay type: in vivo, Sorghum halepense; settings: for Johnsongrass plant response rating: scale 0 to 100
Procedure, shortened: as §3

waterhemp = experiment: Test C postemergence; assay type: in vivo, Amaranthus rudis; settings: for Waterhemp plant response rating / Plant response rating, Waterhemp: postemergence; for Waterhemp plant response rating: 62 g ai/ha, scale 0 to 100
Description: as §1, §2

oilseed rape = experiment: Test C postemergence; assay type: in vivo, Brassica napus; settings: for Oilseed Rape plant response rating: scale 0 to 100
Description: as §1, §2

pigweed [2] = experiment: Test C preemergence; assay type: in vivo, Amaranthus retroflexus
Procedure, shortened: as §3

wheat = experiment: Test A preemergence; assay type: in vivo, Triticum aestivum; settings: preemergence
Procedure, shortened: (§4)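 Visual injury rating, 0–100 (0 no effect, 100 complete control), vs untreated controls ~10 days after treatment in greenhouse. Pre: directed soil spray on seeded loam/sand. Post: 2–10 cm plants, 1–2 leaf stage. Formulation: non-phytotoxic solvent mix + surfactant.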

pigweed [3] = experiment: Test A preemergence; assay type: in vivo, Amaranthus retroflexus; settings: 0 to 100 scale
Procedure, shortened: as §4

velvetleaf = experiment: Test A preemergence; assay type: in vivo, Abutilon theophrasti; settings: 0 to 100 scale
Procedure, shortened: as §4

johnsongrass [4] = experiment: Test C preemergence; assay type: in vivo, Sorghum halepense
Procedure, shortened: as §3

barnyardgrass = experiment: Test B flood; assay type: in vivo, Echinochloa crus-galli; settings: 250 g ai/ha, visual rating on 0 to 100 scale (0 no effect, 100 complete control), 13 to 15 days
Procedure, shortened: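 Each compound is applied to the floodwater of pots holding 2-leaf seedlings, water standing 3 cm over the soil throughout. Plants stay in a greenhouse 13 to 15 days before visual scoring against controls from 0 (no effect) to 100 (complete control).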

foxtail, giant = experiment: Test A preemergence; assay type: in vivo, Setaria faberii; settings: 0 to 100 scale
Procedure, shortened: as §4

[5] = postemergence, 125 g ai/ha, scale 0 to 100, 0 no effect, 100 complete control
[6] = 125 g ai/ha, scale 0 to 100, 0 no effect, 100 complete control
[7] = Preemergence, 16 g ai/ha, scale 0 to 100
[8] = preemergence, 31 g ai/ha, scale 0 to 100 (0 no effect, 100 complete control), 13 to 15 days
[9] = preemergence, 62 g ai/ha, 13 to 15 days, scale 0 to 100, 0 = no effect, 100 = complete control
[10] = preemergence, 125 g ai/ha, scale 0 to 100, 0 is no effect, 100 is complete control
[11] = 125 g ai/ha, visual injury, 0 to 100 scale, approx. 10 days
[12] = 500 g ai/ha, visual injury after approx. 10 days, 0 to 100 scale (0 no effect, 100 complete control)
[13] = Preemergence, 500 g ai/ha, 0 no effect, 100 complete control
[14] = preemergence, 125 g ai/ha, visual injury, approx. 10 days
[15] = Postemergence, 31 g ai/ha, visually evaluated after 13 to 15 days
[16] = postemergence, 250 g ai/ha, scale 0 to 100 (0 no effect, 100 complete control)

Row | Compound | Blackgrass plant response rating (blackgrass; postemergence, 62 g ai/ha) | Plant response rating, Blackgrass (blackgrass; [5]) | Crabgrass, Large plant response rating (crabgrass, large; postemergence, 62 g ai/ha) | Plant response rating, Crabgrass, Large (crabgrass, large; [5]) | Johnsongrass plant response rating (johnsongrass [1]; postemergence, 62 g ai/ha) | Plant response rating, Johnsongrass (johnsongrass [1]; [5]) | Waterhemp plant response rating (waterhemp) | Plant response rating, Waterhemp (waterhemp; [6]) | Oilseed Rape plant response rating (oilseed rape; postemergence, 62 g ai/ha) | Plant response rating, Oilseed Rape (oilseed rape; [5]) | Pigweed plant response rating (pigweed [2]; [8]) | Plant response rating, Pigweed (pigweed [2]; [9]) | Pigweed plant response rating (pigweed [2]; [10]) | Wheat plant response rating (wheat; [11]) | Wheat plant response rating (wheat; [12]) | Pigweed plant response rating (pigweed [3]; [13]) | Pigweed plant response rating (pigweed [3]; [14]) | Velvetleaf plant response rating (velvetleaf; [13]) | Velvetleaf plant response rating (velvetleaf; [14]) | Johnsongrass plant response rating (johnsongrass [4]; [8]) | also measured
1 | CCCNC(=O)c1cc(CC)n(Cc2ccnc(C(F)(F)F)c2)n1 [Compound 75] | 10 | 15 | 25 | 80 | 10 | 10 | 45 | 75 | 50 | 60 | 100 | 100 | 100 | 80 | 100 | 100 | 100 | 100 | 80 | 100 | Plant response rating (scale of 0 to 100), Blackgrass (blackgrass; Postemergence, 16 g ai/ha): 5; Blackgrass plant response rating (blackgrass; Postemergence, 31 g ai/ha): 5; Plant response rating (scale of 0 to 100), Crabgrass, Large (crabgrass, large; Postemergence, 16 g ai/ha): 20; Crabgrass, Large plant response rating (crabgrass, large; Postemergence, 31 g ai/ha): 20; Plant response rating (scale of 0 to 100), Johnsongrass (johnsongrass [1]; Postemergence, 16 g ai/ha): 10; Johnsongrass plant response rating (johnsongrass [1]; Postemergence, 31 g ai/ha): 10; Plant response rating (scale of 0 to 100), Oilseed Rape (oilseed rape; Postemergence, 16 g ai/ha): 20; Oilseed Rape plant response rating (oilseed rape; Postemergence, 31 g ai/ha): 50; Plant response rating, Pigweed (pigweed [2]; [7]): 85; Plant response rating, Johnsongrass (johnsongrass [4]; [7]): 65; Plant response rating, Johnsongrass (johnsongrass [4]; [9]): 100; Johnsongrass plant response rating (johnsongrass [4]; [10]): 100; Plant response rating, Barnyardgrass (barnyardgrass): 40; Foxtail, Giant plant response rating (foxtail, giant; [13]): 100; Foxtail, Giant plant response rating (foxtail, giant; [14]): 100
2 | CCc1cc(C(=O)NC2CC2)nn1Cc1ccnc(C(F)(F)F)c1 [Compound 76] | 5 | 5 | 10 | 70 | 0 | 25 | 70 | 75 | 35 | 55 | 100 | 100 | 100 | 30 | 90 | 100 | 100 | 60 | 20 | 80 | Plant response rating (scale of 0 to 100 where 0 is no effect and 100 is complete control), Blackgrass (blackgrass; [15]): 5; Plant response rating, Blackgrass (blackgrass; [16]): 10; Plant response rating (scale of 0 to 100 where 0 is no effect and 100 is complete control), Crabgrass, Large (crabgrass, large; [15]): 5; Plant response rating, Crabgrass, Large (crabgrass, large; [16]): 70; Plant response rating (scale of 0 to 100 where 0 is no effect and 100 is complete control), Johnsongrass (johnsongrass [1]; [15]): 0; Plant response rating, Johnsongrass (johnsongrass [1]; [16]): 25; Plant response rating (scale of 0 to 100 where 0 is no effect and 100 is complete control), Waterhemp (waterhemp; [15]): 60; Plant response rating, Waterhemp (waterhemp; 250 g ai/ha, scale 0 to 100 (0 no effect, 100 complete control)): 100; Plant response rating (scale of 0 to 100 where 0 is no effect and 100 is complete control), Oilseed Rape (oilseed rape; [15]): 30; Plant response rating, Oilseed Rape (oilseed rape; [16]): 60; Plant response rating (scale of 0 to 100), Pigweed (pigweed [2]; Preemergence, 250 g ai/ha): 100; Plant response rating (scale of 0 to 100), Johnsongrass (johnsongrass [4]; Preemergence, 250 g ai/ha): 100; Plant response rating, Johnsongrass (johnsongrass [4]; [9]): 100; Johnsongrass plant response rating (johnsongrass [4]; [10]): 100; Plant response rating, Barnyardgrass (barnyardgrass): 20; Foxtail, Giant plant response rating (foxtail, giant; [13]): 100; Foxtail, Giant plant response rating (foxtail, giant; [14]): 80
